Assay results taken from PubChem BioAssay (NCI).
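48-hour exposure; five concentrations; linearly interpolated endpoints. Abbreviation: GI50, concentration required for 50% inhibition of growth. Definition used: TGI = concentration required for complete inhibition of growth.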

Key:
Experiment in all cases: inhibition of tumour cell growth, NCI panel, 48 h
[1] = test system: 786-0 renal
[2] = test system: A498 renal
[3] = test system: A549 NSCLC
[4] = test system: ACHN renal
[5] = test system: BT-549 breast
[6] = test system: CAKI-1 renal
[7] = test system: CCRF-CEM leukemia
[8] = test system: COLO 205 colon
[9] = test system: DU-145 prostate
[10] = test system: EKVX NSCLC
[11] = test system: HCC-2998 colon
[12] = test system: HCT-116 colon
[13] = test system: HCT-15 colon
[14] = test system: HL-60(TB) leukemia
[15] = test system: HOP-62 NSCLC
[16] = test system: HOP-92 NSCLC
[17] = test system: HS 578T breast
[18] = test system: HT29 colon
[19] = test system: IGROV1 ovarian
[20] = test system: K-562 leukemia
[21] = test system: KM12 colon
[22] = test system: LOX IMVI melanoma
[23] = test system: M14 melanoma
[24] = test system: MALME-3M melanoma
[25] = test system: MCF7 breast
[26] = test system: MDA-MB-231 breast
[27] = test system: MDA-MB-435
[28] = test system: MOLT-4 leukemia
[29] = test system: NCI-H226 lung
[30] = test system: NCI-H23 lung
[31] = test system: NCI-H460 lung
[32] = test system: NCI-H522 lung
[33] = test system: NCI/ADR-RES ovarian
[34] = test system: OVCAR-3 ovarian
[35] = test system: OVCAR-4 ovarian
[36] = test system: OVCAR-5 ovarian
[37] = test system: OVCAR-8 ovarian
[38] = test system: PC-3 prostate
[39] = test system: RPMI-8226 leukemia
[40] = test system: RXF 393 renal
[41] = test system: SF-268 CNS
[42] = test system: SF-295 CNS
[43] = test system: SF-539 CNS
[44] = test system: SK-MEL-2 melanoma
[45] = test system: SK-MEL-28 melanoma
[46] = test system: SK-MEL-5 melanoma
[47] = test system: SK-OV-3 ovarian
[48] = test system: SN12C renal
[49] = test system: SNB-19 CNS
[50] = test system: SNB-75 CNS
[51] = test system: SR leukemia
[52] = test system: SW-620 colon
[53] = test system: T-47D breast
[54] = test system: TK-10 renal
[55] = test system: U251 CNS
[56] = test system: UACC-257 melanoma
[57] = test system: UACC-62 melanoma
[58] = test system: UO-31 renal

## ClCc1ccc(-c2ccc(Cn3cnc4nc(Cl)nc(Cl)c43)cc2)cc1
[1]
  GI50: 17.1 µM
  TGI: 31.7 µM
[2]
  GI50: 17.7 µM
  TGI: 32 µM
[3]
  GI50: 3.53 µM
  TGI: > 100 µM
[4]
  GI50: 5.36 µM
  TGI: 17 µM
[5]
  GI50: 2.72 µM
  TGI: 6.59 µM
[6]
  GI50: 2.21 µM
  TGI: 4.99 µM
[7]
  GI50: 2.16 µM
  TGI: 4.86 µM
[8]
  GI50: 4.02 µM
  TGI: 18.2 µM
[9]
  GI50: 2.71 µM
  TGI: 7.6 µM
[10]
  GI50: 15.9 µM
  TGI: 29.5 µM
[11]
  GI50: 4.63 µM
  TGI: 21.7 µM
[12]
  GI50: 3.85 µM
  TGI: 13.4 µM
[13]
  GI50: 3.9 µM
  TGI: 13.9 µM
[14]
  GI50: 12.3 µM
  TGI: > 100 µM
[15]
  GI50: 13.5 µM
  TGI: 48.8 µM
[16]
  GI50: 3.82 µM
  TGI: 8.78 µM
[17]
  GI50: 5.81 µM
  TGI: 40.7 µM
[18]
  GI50: 3.54 µM
  TGI: 12.4 µM
[19]
  GI50: 14.3 µM
  TGI: 34.8 µM
[20]
  GI50: 5.59 µM
  TGI: 44.1 µM
[21]
  GI50: 3.69 µM
  TGI: 12.8 µM
[22]
  GI50: 1.86 µM
  TGI: 3.3 µM
[23]
  GI50: 18.7 µM
  TGI: 36.8 µM
[24]
  GI50: 3.33 µM
  TGI: 7.88 µM
[25]
  GI50: 3.18 µM
  TGI: 10.8 µM
[26]
  GI50: 11.1 µM
  TGI: 23.7 µM
[27]
  GI50: 5.25 µM
  TGI: 20.7 µM
[28]
  GI50: 3.36 µM
  TGI: 10.9 µM
[29]
  GI50: 13.8 µM
  TGI: 26.7 µM
[30]
  GI50: 7.32 µM
  TGI: 24.3 µM
[31]
  GI50: 7.85 µM
  TGI: 24.6 µM
[32]
  GI50: 12 µM
  TGI: 36.4 µM
[33]
  GI50: 3.97 µM
  TGI: 70.4 µM
[34]
  GI50: 2.19 µM
  TGI: 4.59 µM
[35]
  GI50: 15 µM
  TGI: 28.3 µM
[36]
  GI50: 19.6 µM
  TGI: 36 µM
[37]
  GI50: 2.41 µM
  TGI: 6.52 µM
[38]
  GI50: 4.71 µM
  TGI: 16.7 µM
[39]
  GI50: 3.81 µM
  TGI: 27.9 µM
[40]
  GI50: 2.5 µM
  TGI: 5 µM
[41]
  GI50: 3.6 µM
  TGI: 15.2 µM
[42]
  GI50: 14.2 µM
  TGI: 30.7 µM
[43]
  GI50: 2.3 µM
  TGI: 5.06 µM
[44]
  GI50: 7.9 µM
  TGI: 21.2 µM
[45]
  GI50: 2.38 µM
  TGI: 5.16 µM
[46]
  GI50: 4.55 µM
  TGI: 16.5 µM
[47]
  GI50: 19.7 µM
  TGI: 33.9 µM
[48]
  GI50: 3.06 µM
  TGI: 12.3 µM
[49]
  GI50: 4.58 µM
  TGI: 15.2 µM
[50]
  GI50: 4.5 µM
  TGI: 15.2 µM
[51]
  GI50: 2.39 µM
  TGI: 7.46 µM
[52]
  GI50: 2.22 µM
  TGI: 4.75 µM
[53]
  GI50: 7.03 µM
  TGI: 49.3 µM
[54]
  GI50: 6.88 µM
  TGI: 20.4 µM
[55]
  GI50: 3.82 µM
  TGI: 11.3 µM
[56]
  GI50: 3.04 µM
  TGI: 9.88 µM
[57]
  GI50: 4.13 µM
  TGI: 14.4 µM
[58]
  GI50: 16.7 µM
  TGI: 34.1 µM
